This is an account of results in EP4722209A1 (Beijing Shenogen Pharma Group, priority 2023, dated 2024).

This experiment addresses T1, ERα (Homo sapiens, UniProt P03372).
T1 construct: host or cells: MCF-7
T1 sequence (P03372 1-595): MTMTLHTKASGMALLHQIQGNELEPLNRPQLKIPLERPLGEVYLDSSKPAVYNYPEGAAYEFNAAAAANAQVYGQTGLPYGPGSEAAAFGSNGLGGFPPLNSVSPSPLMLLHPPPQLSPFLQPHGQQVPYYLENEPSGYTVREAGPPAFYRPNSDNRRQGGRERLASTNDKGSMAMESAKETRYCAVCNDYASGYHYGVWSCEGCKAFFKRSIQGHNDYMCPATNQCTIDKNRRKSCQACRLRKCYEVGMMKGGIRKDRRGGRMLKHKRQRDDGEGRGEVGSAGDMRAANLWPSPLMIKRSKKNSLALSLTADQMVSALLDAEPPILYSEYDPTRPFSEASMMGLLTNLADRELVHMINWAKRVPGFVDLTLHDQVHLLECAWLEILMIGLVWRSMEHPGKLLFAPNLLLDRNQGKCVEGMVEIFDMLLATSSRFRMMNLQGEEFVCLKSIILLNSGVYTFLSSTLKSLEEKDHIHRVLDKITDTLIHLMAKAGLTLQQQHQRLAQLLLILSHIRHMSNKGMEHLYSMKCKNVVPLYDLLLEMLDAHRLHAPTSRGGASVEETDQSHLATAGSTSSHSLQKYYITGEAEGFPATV
Kind of experiment: ER degradation activity in MCF-7 cells (Western blot, grayscale intensity). In kind it is cell-based. The settings on record: 6 hours treatment, 1 nM to 100 nM, concentration required to degrade 50% of the target protein. Here is the method: ERα-positive human breast cancer cells MCF-7 (ATCC, HTB-22) were cultured with EMEM medium (ATCC, catalog number 30-2003) containing 10% fetal bovine serum (Thermo Fisher, catalog number 10099141) and 10 µg/mL bovine insulin in 25 cm^2 or 75 cm^2 plastic tissue culture flasks in a 37 °C incubator with 5% CO2. The cells were passaged 2 to 3 times per week. MCF-7 cells were seeded in 6-well plate at 1×10^6 cells/well with 1.8 mL culture medium per well, and cultured in a 37 °C incubator with 95% air and 5% CO2. After 24 hours, the test compounds were added: the compounds were serially diluted 10-fold in DMSO starting from 10 mM (dissolved in DMSO) to prepare gradient stock solutions. A complete culture medium containing 1% DMSO was prepared for further dilution, temporarily named as the "dilution buffer." Working solutions were prepared by diluting each stock solution with 99 times the volume of dilution buffer, that is, by adding 1 µL of the 10 mM stock solution to 99 µL of the dilution buffer and mixing thoroughly.
Finally, […] of the working solution was added to the cell-seeded culture plate. The final concentration of DMSO in the cell culture medium was 0.2%, and the final concentration of the test compounds ranged from 1 nM to 100 nM. The cells were then incubated at 37 °C for 6 hours.
The culture medium was removed, and the cells were washed twice with ice cold PBS. 1 mL of PBS was added to each well, and the cells were collected into EP tubes using a cell scraper, and centrifuged at 4 °C, 4000 rpm for 5 minutes. PBS was aspirated. Total protein was extracted using the Minute™ Mammalian Tissue/Cell Total Protein Extraction Reagent. The protein concentration was measured using the BCA protein assay kit. 30 µg of protein was taken and mixed with 5× SDS-PAGE loading buffer, boiled for 10 minutes, and cooled. The samples were loaded into wells of a precast gel, with constant voltage at 80 V for 30 minutes, and then the voltage was changed to 120 V after the samples entered the resolving gel. The "sandwich" (sponge - filter paper - gel - membrane - filter paper - sponge) was assembled for Bio-Rad's Transblot. Transfer was performed for 1 hour at 0.3 amp at 4 °C. The sample was blocked with 5% fat-free milk for 1 hour, and incubated with Estrogen Receptor alpha Antibody (Thermo Fisher, catalog number MA5-14104) overnight at 4 °C. The membrane was washed with TBST to remove non-specifically bound antibodies, and then incubated with goat anti-mouse IgG-HRP secondary antibody for 1 hour at room temperature, and was visualized using ECL. The protein degradation level was calculated by measuring the grayscale intensity.
The DC50 values (i.e., the concentration of the test compounds required to degrade 50% of the target protein) were calculated and shown in Table 1. A corresponds to a DC50 value below 10 nM, B corresponds to a DC50 value greater than 10 nM and less than 100 nM, and C corresponds to DC50 values greater than 100 nM. Table 1. The DC50 values of exemplary compounds in MCF-7 cells
A general note: Immunoblotting shows a protein as a band on a membrane.
What is called DC50 is the concentration giving 50% degradation. `Cn1nc(N2CCC(=O)NC2=O)c2ccc(C3CCN(CC(=O)N4CCN(c5ccc(C(=C6CC(C)(C)OC(C)(C)C6)c6ccc7[nH]nc(F)c7c6)cn5)CC4)CC3(F)F)cc21` (stereo not shown) [Compound 93] displayed a DC50 greater than 100 nM.

For the molecule `Cn1nc(N2CCC(=O)NC2=O)c2ccc(C3CCN(CC(=O)N4CC5(C4)CN(c4ccc(C(=C6CC(C)(C)OC(C)(C)C6)c6ccc7[nH]nc(F)c7c6)cn4)C5)CC3(F)F)cc21` (stereo not shown) [Compound 94], the 50% degradation concentration (DC50) was greater than 100 nM.

`Cn1nc(N2CCC(=O)NC2=O)c2ccc(C3CCN(CC(=O)N4CC5(C4)CN(c4ccc(C(=C6CC(C)(C)OC(C)(C)C6)c6ccc7[nH]nc(F)c7c6)cn4)C5)CC3)cc21` [Compound 95] displayed a 50% degradation concentration (DC50) greater than 100 nM.

`CC1(C)CC(=C(c2ccc(N3CCC(CN4CCN(c5cccn6c(N7CCC(=O)NC7=O)cnc56)CC4)CC3)nc2)c2ccc3[nH]nc(F)c3c2)CC(C)(C)O1` [Compound 96, 1-(8-(4-((1-(5-((3-fluoro-1H-indazole-5-yl)(2,2,6,6-tetramethyltetrahydro-4H-pyran-4-ylidene)methyl)pyridin-2-yl)piperidin-4-yl)methyl)piperazin-1-yl)imidazole [1,2-a]pyridin-3-yl)dihydropyrimidine-2,4 (1H, 3H) - dione] registered a DC50 of less than 10 nM.

Molecule `CN(CC1CCN(c2ccc(C(=C3CC(C)(C)OC(C)(C)C3)c3ccc4[nH]nc(F)c4c3)cn2)CC1)C1CCN(c2cccn3c(N4CCC(=O)NC4=O)cnc23)CC1` [Compound 97] showed a DC50 of 10 to 100 nM.

`CN(CC1CCN(c2ccc(C(=C3CC(C)(C)OC(C)(C)C3)c3ccc4[nH]nc(F)c4c3)cn2)CC1)C1CCN(c2ccn3c(N4CCC(=O)NC4=O)cnc3c2)CC1` [Compound 98]: the DC50 is greater than 100 nM.

Regarding `Cn1c(=O)n(C2CCC(=O)NC2=O)c2cccc(C3CCN(CC4CCN(c5ccc(C(=C6CC(C)(C)OC(C)(C)C6)c6ccc7[nH]nc(F)c7c6)cn5)CC4)CC3)c21` (stereo not shown) [Compound 99], the DC50 was 10 to 100 nM.

`Cn1c(=O)n(C2CCC(=O)NC2=O)c2cccc(C#CCOC3CCN(c4ccc(C(=C5CC(C)(C)OC(C)(C)C5)c5ccc6[nH]nc(F)c6c5)cn4)CC3)c21` (stereo not shown) [Compound 100] registered a DC50 greater than 100 nM.

`Cn1c(=O)n(C2CCC(=O)NC2=O)c2cccc(C#CCN3CCN(c4ccc(C(=C5CC(C)(C)OC(C)(C)C5)c5ccc6[nH]nc(F)c6c5)cn4)CC3)c21` (stereo not shown) [Compound 101] returned a DC50 greater than 100 nM.

Consider `CC1(C)CC(=C(c2ccc3[nH]nc(F)c3c2)c2c(F)cc(N3CCN(CC4CCN(c5ccc6c(c5)C(=O)N(C5CCC(=O)NC5=O)C6=O)CC4)CC3)cc2F)CC(C)(C)O1` (stereo not shown) [Compound 102], for which the DC50 was greater than 100 nM.

Turning to `CC1(C)CC(=C(c2ccc(N3CCC(CN4CCN(c5ccc6c(c5)C(=O)N(C5CCC(=O)NC5=O)C6=O)CC4)CC3)nc2)c2ccc3[nH]nc(F)c3c2)CC(C)(C)O1` (stereo not shown) [Compound 103], the DC50 lay in the range of 10 to 100 nM.

With `CC1(C)CC(=C(c2ccc(N3CCC(N4CCN(c5ccc6c(c5)C(=O)N(C5CCC(=O)NC5=O)C6=O)CC4)CC3)nc2)c2ccc3[nH]nc(F)c3c2)CC(C)(C)O1` (stereo not shown) [Compound 104], the DC50 was greater than 100 nM.

`CC1(C)CC(=C(c2ccc(N3CCN(C4CCN(c5ccc6c(c5)C(=O)N(C5CCC(=O)NC5=O)C6=O)CC4)CC3)nc2)c2ccc3[nH]nc(F)c3c2)CC(C)(C)O1` (stereo not shown) [Compound 105] came in with a DC50 of less than 10 nM.

Turning to `CC1(C)CC(=C(c2ccc(N3CCN(C4CN(c5ccc6c(c5)C(=O)N(C5CCC(=O)NC5=O)C6=O)C4)CC3)nc2)c2ccc3[nH]nc(F)c3c2)CC(C)(C)O1` (stereo not shown) [Compound 106], the DC50 is greater than 100 nM.

`CC1(C)CC(=C(c2ccc(N3CCC(CN4CCN(c5cccc(NC6CCC(=O)NC6=O)c5)CC4)CC3)cc2)c2ccc3[nH]nc(F)c3c2)CC(C)(C)O1` (stereo not shown) [Compound 107] yielded a DC50 greater than 100 nM.

`CC1(C)CC(=C(c2ccc(N3CCN(C4CCN(c5cccc(NC6CCC(=O)NC6=O)c5)CC4)CC3)cc2)c2ccc3[nH]ncc3c2)CC(C)(C)O1` (stereo not shown) [Compound 108] came in with a 50% degradation concentration (DC50) greater than 100 nM.

The molecule `CC1(C)CC(=C(c2ccc(N3CC4(CCC(N5CCN(c6ccc7c(c6)CN(C6CCC(=O)NC6=O)C7=O)CC5)CC4)C3)nc2)c2ccc3[nH]nc(F)c3c2)CC(C)(C)O1` (stereo not shown) [Compound 109] returned a DC50 of less than 10 nM.

Molecule `CC1(C)CC(=C(c2ccc(N3CCC(CN4CCN(c5ccc6c(c5)CN(C5CCC(=O)NC5=O)C6=O)CC4)CC3)nc2)c2ccc3c(F)n[nH]c3c2)CC(C)(C)O1` (stereo not shown) [Compound 112] registered a half-maximal degradation concentration (DC50) of 10 to 100 nM.

`CC1(C)CC(=C(c2ccc(N3CCC(CN4CCN(c5ccc6c(c5)CN(C5CCC(=O)NC5=O)C6=O)CC4)CC3)nc2)c2ccc3cncn3c2)CC(C)(C)O1` (stereo not shown) [Compound 113]: the 50% degradation concentration (DC50) is greater than 100 nM.

`CC1(C)CC(=C(c2ccc(N3CCC(CN4CCN(c5ccc6c(c5)CN(C5CCC(=O)NC5=O)C6=O)CC4)CC3)nc2)c2cccc(O)c2)CC(C)(C)O1` (stereo not shown) [Compound 114] yielded a DC50 of 10 to 100 nM.

`CC1(C)CC(=C(c2ccc(N3CCC(CN4CCN(c5ccc(NC6CCC(=O)NC6=O)c(F)c5)CC4)CC3)cc2)c2ccc3[nH]nc(F)c3c2)CC(C)(C)O1` (stereo not shown) [Compound 115] had a DC50 greater than 100 nM.

`CC1(C)CC(=C(c2ccc(N)nc2)c2ccc(N3CCC(CN4CCN(c5ccc6c(c5)CN(C5CCC(=O)NC5=O)C6=O)CC4)CC3)nc2)CC(C)(C)O1` (stereo not shown) [Compound 116] displayed a DC50 greater than 100 nM.

As to `CC1(C)CC(=C(c2ccc(N3CCC(CN4CCN(c5ccc6c(c5)C(=O)N(C5CCC(=O)NC5=O)C6)CC4)CC3)nc2)c2ccc3[nH]nc(F)c3c2)CC(C)(C)O1` (stereo not shown) [Compound 118], the DC50 is greater than 100 nM.

In the case of `CC1(C)CC(=C(c2ccc(N3CCC(CN4CCN(c5ccc(C(=O)N[C@H]6CCC(=O)NC6=O)c(F)c5)CC4)CC3)nc2)c2ccc3[nH]nc(F)c3c2)CC(C)(C)O1` [Compound 122], the DC50 was less than 10 nM.

Regarding `CC1(C)CC(=C(c2ccc(N3CCC4(CC3)CC(N3CCN(c5ccc(C(=O)N[C@H]6CCC(=O)NC6=O)c(F)c5)CC3)C4)nc2)c2ccc3[nH]nc(F)c3c2)CC(C)(C)O1` [Compound 123], the DC50 is 10 to 100 nM.

`Cn1nc(N2CCC(=O)NC2=O)c2cc(F)c(N3CCN(CC4CCN(c5ccc(C(=C6CC(C)(C)OC(C)(C)C6)c6ccc7[nH]nc(F)c7c6)cn5)CC4)CC3)cc21` [Compound 124] showed a DC50 of 10 to 100 nM.

In the case of `Cn1nc(N2CCC(=O)NC2=O)c2cc(F)c(N3CCN(C4CC5(CCN(c6ccc(C(=C7CC(C)(C)OC(C)(C)C7)c7ccc8[nH]nc(F)c8c7)cn6)CC5)C4)CC3)cc21` [Compound 125], the DC50 was less than 10 nM.

Regarding `CC1(C)CC(=C(c2ccc(N3CCC(CN4CCN(c5ccc(C(=O)N[C@H]6CCC(=O)NC6=O)cc5)CC4)CC3)nc2)c2ccc3[nH]nc(F)c3c2)CC(C)(C)O1` [Compound 126], the 50% degradation concentration (DC50) was less than 10 nM.

`CC1(C)CC(=C(c2ccc(N3CCC4(CC3)CC(N3CCN(c5ccc(C(=O)N[C@H]6CCC(=O)NC6=O)cc5)CC3)C4)nc2)c2ccc3[nH]nc(F)c3c2)CC(C)(C)O1` [Compound 127] had a DC50 of less than 10 nM.

`CC1(C)CC(=C(c2ccc(N3CCC(CN4CCN(c5ccc(C(=O)N[C@H]6CCC(=O)NC6=O)nc5)CC4)CC3)nc2)c2ccc3[nH]nc(F)c3c2)CC(C)(C)O1` [Compound 128] registered a DC50 of 10 to 100 nM.

Regarding `CC1(C)CC(=C(c2ccc(N3CCC4(CC3)CC(N3CCN(c5ccc(C(=O)N[C@H]6CCC(=O)NC6=O)nc5)CC3)C4)nc2)c2ccc3[nH]nc(F)c3c2)CC(C)(C)O1` [Compound 129], the half-maximal degradation concentration (DC50) was in the range of 10 to 100 nM.
